From article PMC7588595, “Small-molecule active pharmaceutical ingredients of approved cancer therapeutics inhibit human aspartate/asparagine-β-hydroxylase” (Bioorganic & Medicinal Chemistry, 2020)
Where a name gives a salt, the structure may show the parent alone. Read-outs that look alike come from different tables or passages of the source.

Target: T1, human AspH (His6-AspH315–758) (Homo sapiens, UniProt Q12797)
T1 construct: N-Terminally His6-tagged human AspH315–758 (His6-AspH315–758) was produced in Escherichia coli BL21 (DE3) cells; made in house; host or cells: Escherichia coli BL21 (DE3), pET-28a(+) vector
T1 sequence (Q12797 315-758): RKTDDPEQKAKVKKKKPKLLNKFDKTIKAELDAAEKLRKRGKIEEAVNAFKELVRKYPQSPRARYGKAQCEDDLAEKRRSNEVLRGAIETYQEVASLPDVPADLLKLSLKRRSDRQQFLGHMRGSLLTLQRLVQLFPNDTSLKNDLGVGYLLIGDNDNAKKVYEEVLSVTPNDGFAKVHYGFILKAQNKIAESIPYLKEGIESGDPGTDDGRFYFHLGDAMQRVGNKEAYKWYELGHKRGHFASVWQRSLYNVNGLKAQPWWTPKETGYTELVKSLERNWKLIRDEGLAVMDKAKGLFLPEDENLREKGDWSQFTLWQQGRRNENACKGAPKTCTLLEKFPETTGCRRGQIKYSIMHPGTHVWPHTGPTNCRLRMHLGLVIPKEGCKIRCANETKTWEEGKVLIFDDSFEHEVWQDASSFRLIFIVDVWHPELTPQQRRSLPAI
Assay: SPE-MS AspH inhibition assay (hFX-CP101-119 substrate hydroxylation)
Assay type: biochemical

[1] = AspH-inhibitor screening, 384-well Plate 1
[2] = AspH-inhibitor screening, 384-well Plate 1, substrate conversion
[3] = AspH-inhibitor screening, Plate 1-duplicate
[4] = AspH-inhibitor screening, Plate 1-duplicate, substrate conversion
[5] = 20 μM fixed inhibitor, 50 nM His6-AspH315–758, 1 μM hFX-CP101–119, 100 μM LAA, 3 μM 2OG, 2 μM FAS, 50 mM HEPES pH 7.5, 20 °C, relative to DMSO and 2,4-PDCA controls

Compound	Plate 1 (% inhibition) [1]	Plate 1 (% conversion) [2]	Plate 1-duplicate (% inhibition) [3]	Plate 1-duplicate (% conversion) [4]	further results
COCC1(CO)C(=O)C2CCN1CC2 (centres unmarked) [Prima-1 Met]	3.70%	48.04%	3.39%	50.36%	–
Oc1ncc(N(CCCl)CCCl)c(O)n1 [Uracil mustard]	–	–	–	–	Plate 1 (% conversion): 47.47%; Plate 1 (% inhibition): 4.95%; Plate 1-duplicate (% conversion): 46.70%; Plate 1-duplicate (% inhibition): 10.76%
Nc1ncnc2c1c(COc1cccc(Cl)c1)nn2C1CCOCC1 [PF4800567 hydrochloride]	-0.85%	50.14%	0.27%	51.91%	–
C=CC(=O)N1CCC[C@@H](n2nc(-c3ccc(Oc4ccccc4)cc3)c3c(N)ncnc32)C1 [PCI-32765_Ibrutinib]	0.65%	49.45%	-9.59%	56.80%	–
Cc1c(C(=O)Nc2ccc(N3C[C@@H](C)O[C@@H](C)C3)nc2)cccc1-c1ccc(OC(F)(F)F)cc1 [Erismodegib]	-2.59%	50.95%	-6.71%	55.37%	–
CC(=O)N(O)CCCCCNC(=O)CCC(=O)N(O)CCCCCNC(=O)CCC(=O)N(O)CCCCCN [Deferoxamine mesylate]	14.63%	43.00%	7.26%	48.44%	–
CN(Cc1cnc2nc(N)nc(N)c2n1)c1ccc(C(=O)N[C@@H](CCC(=O)O)C(=O)O)cc1 [Abitrexate/Methotrexate]	8.67%	45.75%	10.50%	46.84%	–
O=c1[nH]c(=O)n([C@H]2C[C@H](O)[C@@H](CO)O2)cc1F [Floxuridine]	0.74%	49.41%	5.87%	49.13%	–
Cc1[nH]c2ccccc2c1CCNCc1ccc(/C=C/C(=O)NO)cc1 [Panobinostat]	44.02%	29.42%	37.62%	33.38%	–
C1CN1c1nc(N2CC2)nc(N2CC2)n1 [Triethylenemelamine]	–	–	–	–	Plate 1 (% conversion): 46.54%; Plate 1 (% inhibition): 6.96%; Plate 1-duplicate (% conversion): 50.74%; Plate 1-duplicate (% inhibition): 2.63%
O=C(c1ccc(OCCN2CCCCC2)cc1)c1c(-c2ccc(O)cc2)sc2cc(O)ccc12 [Raloxifene]	17.35%	41.74%	14.45%	44.88%	–
CCC1(c2ccc(N)cc2)CCC(=O)NC1=O (centres unmarked) [Aminoglutethimide]	11.22%	44.57%	9.40%	47.38%	–
Cc1ccc(NC(=O)c2ccc(CN3CCN(C)CC3)cc2)cc1Nc1nc(-c2cccnc2)cs1 [Masitinib]	-15.10%	56.72%	-11.47%	57.73%	–
CNC(=O)c1ccccc1Sc1ccc2c(/C=C/c3ccccn3)n[nH]c2c1 [Axitinib]	0.59%	49.48%	-0.34%	52.21%	–
CC1(COc2ccc3c(c2)ncn3-c2ccc3cccc(N4CCC(N)CC4)c3n2)COC1 [Crenolanib]	-2.58%	50.94%	-3.79%	53.92%	–
COc1cc(F)c(F)c(Nc2ccc(I)cc2F)c1NS(=O)(=O)C1(C[C@H](O)CO)CC1 [RDEA119_Refametinib]	2.93%	48.40%	4.05%	50.03%	–
CCc1c(C(=O)C(N)=O)c2c(OCC(=O)O)cccc2n1Cc1ccccc1 [Varespladib]	9.84%	45.21%	8.14%	48.01%	–
C[C@]12CC[C@H](O)CC1=CC[C@@H]1[C@@H]2CC[C@]2(C)C(c3cccnc3)=CC[C@@H]12 [Abiraterone]	1.80%	48.92%	1.40%	51.35%	–
C[C@]12C=CC(=O)C=C1CC[C@@H]1[C@@H]2[C@@H](O)C[C@@]2(C)[C@H]1CC[C@]2(O)C(=O)CO [Prednisolone]	19.12%	–	12.03%	–	Plate 1 (% conversion): 40.92%; Plate 1-duplicate (% conversion): 46.08%
CCN(CC)CCNC(=O)c1c(C)[nH]c(/C=C2\C(=O)Nc3ccc(F)cc32)c1C [Sunitinib]	-40.27%	68.35%	-34.40%	69.10%	–
CC/C(=C(\c1ccccc1)c1ccc(OCCN(C)C)cc1)c1ccccc1 [Tamoxifen citrate]	67.86%	18.41%	59.34%	22.61%	–
Cc1ccc(-n2nc(C(C)(C)C)cc2NC(=O)Nc2ccc(OCCN3CCOCC3)c3ccccc23)cc1 [BIRB 796 (Doramapimod)]	7.83%	46.14%	2.76%	50.67%	–
O=C(CCCCCCC(=O)Nc1ccc([C@H]2O[C@@H](CSc3nc(-c4ccccc4)c(-c4ccccc4)o3)C[C@@H](c3ccc(CO)cc3)O2)cc1)NO [Tubacin, reference compound]	92.77%	6.91%	87.89%	8.45%	IC50 (50 nM His6-AspH315–758, 1 μM hFX-CP101–119, 100 μM LAA, 3 μM 2OG, 2 μM FAS, 50 mM HEPES pH 7.5, 20 °C, read-out: IC50): 4.12 ± 0.5 µM; AspH inhibition at 20 μM [5]: 90.3 ± 3.5%; inhibition at 20 µM [5]: > 90%; IC50 (read-out: IC50 at 10 μM substrate, 10 μM hFX-CP101–119 and 10 μM 2OG instead of 1 μM hFX-CP101–119 and 3 μM 2OG): 3.57 ± 0.1 µM; IC50 (read-out: IC50 at 20 μM Fe(II), 20 μM Fe(II) instead of 2 μM Fe(II)): 4.91 ± 1.63 µM; IC50 (read-out: IC50 at 200 μM 2OG, 200 μM 2OG instead of 3 μM 2OG): 5.69 ± 0.7 µM
COc1cc2nccc(Oc3ccc(NC(=O)NC4CC4)c(Cl)c3)c2cc1C(N)=O [Lenvatinib]	-19.98%	58.98%	-15.77%	59.86%	–
CC[C@H](CC#N)OC(=O)N[C@@H](C)c1cccc(NC(=O)Nc2ccc(-c3cnco3)c(OC)c2)c1 [AVN944]	-7.04%	53.00%	-8.24%	56.13%	–
CC[C@]1(O)C[C@@H]2CN(CCc3c([nH]c4ccccc34)[C@@](C(=O)OC)(c3cc4c(cc3OC)N(C)[C@H]3[C@@](O)(C(=O)OC)[C@H](OC(C)=O)[C@]5(CC)C=CCN6CC[C@]43[C@@H]65)C2)C1 [Vinblastine sulfate]	-22.64%	60.21%	-30.80%	67.31%	–
